# Data from PMC8445441, “Elucidating the mechanism by which synthetic helper peptides sensitize Pseudomonas aeruginosa to multiple antibiotics” (PLoS Pathogens, 2021).
# Read-outs that look alike come from different tables or passages of the source.
# Key:
# P. aeruginosa AUMC-Pa-3 = experiment: microbe, parasite or virus in culture; conditions: for MIC: Pseudomonas aeruginosa, AUMCPA3, 18 h, read-out: MICa: MIC of the antibiotic; for FICI / MICac: MIC of the antibiotic in the combination: strain AUMC-Pa-3; for FICI: antibiotic + D-11 (MICb/MICbc 128/4); for MICac: MIC of the antibiotic in the combination: with D-11 at MICbc 4, unit not given
# Method in brief: (§1)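 CLSI broth dilution; MHB; ~1 × 10^6 CFU/mL suspension mixed equal volume with drug; 37 °C for 18 h; visual read; triplicate. Broth sometimes supplemented with PG, PE, PC, CL, LPS, MgCl2, CaCl2 or PAβN.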
# P. aeruginosa PAO1 = experiment: microbe, parasite or virus in culture; conditions: PAO1; for MIC: Pseudomonas aeruginosa, PAO1, 18 h, read-out: MICa: the MIC of antibiotics, S3 Table, antibiotic alone; for FICI / MICac: the MIC for the antibiotic in the combination: S3 Table
# Method in brief: as §1
# P. aeruginosa AUMC-Pa-6 = experiment: microbe, parasite or virus in culture; conditions: for FICI: antibiotic + D-11 (MICb/MICbc 64/4); for MICac: MIC of the antibiotic in the combination: with D-11 at MICbc 4
# Method in brief: as §1
# P. aeruginosa AUMC-Pa-4 = experiment: microbe, parasite or virus in culture; conditions: for FICI: antibiotic + D-11 (MICb/MICbc 128/4); for MICac: MIC of the antibiotic in the combination: with D-11 at MICbc 4
# Method in brief: as §1
# P. aeruginosa AUMC-Pa-5 = experiment: microbe, parasite or virus in culture; conditions: for FICI: antibiotic + D-11 (MICb/MICbc 64/4); for MICac: MIC of the antibiotic in the combination: with D-11 at MICbc 4
# Method in brief: as §1
# P. aeruginosa HM-214 = conditions: strain HM-214; antibiotic + D-11 (MICb/MICbc 128/4)
# Method in brief: as §1
# P. aeruginosa AUMC-Pa-1 = conditions: strain AUMC-Pa-1; antibiotic + D-11 (MICb/MICbc 128/4)
# Method in brief: as §1
# P. aeruginosa AUMC-Pa-2 = conditions: strain AUMC-Pa-2; antibiotic + D-11 (MICb/MICbc 64/4)
# Method in brief: as §1
# P. aeruginosa PAK = experiment: microbe, parasite or virus in culture; design: MICa: MIC of the antibiotic / MICac: MIC of the antibiotic in the combination: unit not given beside the values; conditions: for MIC: Pseudomonas aeruginosa, 18 h, read-out: MICa: MIC of the antibiotic; for FICI / MICac: MIC of the antibiotic in the combination: strain PAK; for FICI: antibiotic + D-11 (MICb/MICbc 64/4); for MICac: MIC of the antibiotic in the combination: with D-11 at MICbc 4, unit not given
# Method in brief: as §1
# P. aeruginosa PA14 = experiment: microbe, parasite or virus in culture; design: MICa: MIC of the antibiotic / MICac: MIC of the antibiotic in the combination: unit not given beside the values; conditions: for MIC: Pseudomonas aeruginosa, PA14, 18 h, read-out: MICa: MIC of the antibiotic; for FICI / MICac: MIC of the antibiotic in the combination: strain PA14; for FICI: antibiotic + D-11 (MICb/MICbc 128/4); for MICac: MIC of the antibiotic in the combination: with D-11 at MICbc 4, unit not given
# Method in brief: as §1
# P. aeruginosa NR-31041 = experiment: microbe, parasite or virus in culture; design: MICa: MIC of the antibiotic / MICac: MIC of the antibiotic in the combination: unit not given beside the values; conditions: for MIC: Pseudomonas aeruginosa, NR31041, 18 h, read-out: MICa: MIC of the antibiotic; for FICI / MICac: MIC of the antibiotic in the combination: strain NR-31041; for FICI: antibiotic + D-11 (MICb/MICbc 64/4); for MICac: MIC of the antibiotic in the combination: with D-11 at MICbc 4, unit not given
# Method in brief: as §1
# P. aeruginosa NR-31040 = experiment: microbe, parasite or virus in culture; design: MICa: MIC of the antibiotic / MICac: MIC of the antibiotic in the combination: unit not given beside the values; conditions: for FICI: antibiotic + D-11 (MICb/MICbc 128/4); for MICac: MIC of the antibiotic in the combination: with D-11 at MICbc 4
# Method in brief: as §1
# P. aeruginosa ATCC27853 = experiment: microbe, parasite or virus in culture; design: MICa: MIC of the antibiotic / MICac: MIC of the antibiotic in the combination: unit not given beside the values; conditions: for MIC: Pseudomonas aeruginosa, ATCC27853, 18 h, read-out: MICa: MIC of the antibiotic; for FICI / MICac: MIC of the antibiotic in the combination: strain ATCC27853; for FICI: antibiotic + D-11 (MICb/MICbc 32/4); for MICac: MIC of the antibiotic in the combination: with D-11 at MICbc 4, unit not given
# Method in brief: as §1
# [1] = tested on: clinical P. aeruginosa isolates; experiment: microbe, parasite or virus in culture; conditions: Pseudomonas aeruginosa, 18 h, antibiotic alone
# Method in brief: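 MIC is the lowest drug concentration showing no visible growth after 18 h at 37 °C. Two-fold dilutions in MHB were combined with an equal volume of bacterial suspension (about 1 × 10^6 CFU/mL), following CLSI broth microdilution, in triplicate.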
# [2] = strain AUMC-Pa-6, unit not given
# [3] = strain AUMC-Pa-4, unit not given
# [4] = strain AUMC-Pa-5, unit not given
# [5] = strain NR-31040, unit not given
# [6] = read-out: Antibiotic sensibility (MIC) of clinical P. aeruginosa isolate AUMC-Pa-1, strain AUMC-Pa-1
# [7] = read-out: Antibiotic sensibility (MIC) of clinical P. aeruginosa isolate AUMC-Pa-2, strain AUMC-Pa-2
# [8] = read-out: Antibiotic sensibility (MIC) of clinical P. aeruginosa isolate AUMC-Pa-3, strain AUMC-Pa-3
# [9] = read-out: Antibiotic sensibility (MIC) of clinical P. aeruginosa isolate AUMC-Pa-4, strain AUMC-Pa-4
# [10] = read-out: Antibiotic sensibility (MIC) of clinical P. aeruginosa isolate AUMC-Pa-5, strain AUMC-Pa-5
# [11] = read-out: Antibiotic sensibility (MIC) of clinical P. aeruginosa isolate AUMC-Pa-6, strain AUMC-Pa-6
# [12] = read-out: Antibiotic sensibility (MIC) of clinical P. aeruginosa isolate HM-214, strain HM-214
# [13] = read-out: Antibiotic sensibility (MIC) of clinical P. aeruginosa isolate NR-31040, strain NR-31040
# [14] = read-out: Antibiotic sensibility (MIC) of clinical P. aeruginosa isolate NR-31041, strain NR-31041
structure (smiles),measurement,setting,value
CO[C@H]1/C=C/O[C@@]2(C)Oc3c(C)c(O)c4c(O)c(c5c(nc6cc(C)ccn65)c4c3C2=O)NC(=O)/C(C)=C\C=C\[C@H](C)[C@H](O)[C@@H](C)[C@@H](O)[C@@H](C)[C@H](OC(C)=O)[C@@H]1C [Rifaximin],MIC,P. aeruginosa AUMC-Pa-3,8 µM
same,FICI,P. aeruginosa AUMC-Pa-3,0.063
same,MICac: MIC of the antibiotic in the combination,P. aeruginosa AUMC-Pa-3,0.25
same,MIC,P. aeruginosa PAO1,16 µM
same,FICI,P. aeruginosa PAO1; antibiotic + 2 μM D-11,0.066
same,FICI,P. aeruginosa PAO1; antibiotic + 4 μM D-11,0.127
same,MICac: the MIC for the antibiotic in the combination,P. aeruginosa PAO1; with 2 μM D-11,0.0625 µM
same,MICac: the MIC for the antibiotic in the combination,P. aeruginosa PAO1; with 4 μM D-11,0.03125 µM
same,FICI,P. aeruginosa AUMC-Pa-6; strain AUMC-Pa-6,0.313
same,MICa: MIC of the antibiotic,"P. aeruginosa AUMC-Pa-6; strain AUMC-Pa-6, antibiotic alone, unit not given",16
same,MICac: MIC of the antibiotic in the combination,P. aeruginosa AUMC-Pa-6; [2],4
same,FICI,P. aeruginosa AUMC-Pa-4; strain AUMC-Pa-4,0.281
same,MICa: MIC of the antibiotic,"P. aeruginosa AUMC-Pa-4; strain AUMC-Pa-4, antibiotic alone, unit not given",8
same,MICac: MIC of the antibiotic in the combination,P. aeruginosa AUMC-Pa-4; [3],2
same,FICI,P. aeruginosa AUMC-Pa-5; strain AUMC-Pa-5,0.313
same,MICa: MIC of the antibiotic,"P. aeruginosa AUMC-Pa-5; strain AUMC-Pa-5, antibiotic alone, unit not given",32
same,MICac: MIC of the antibiotic in the combination,P. aeruginosa AUMC-Pa-5; [4],8
same,FICI,P. aeruginosa HM-214,0.063
same,FICI,P. aeruginosa AUMC-Pa-1,0.047
same,FICI,P. aeruginosa AUMC-Pa-2,0.094
same,MIC,P. aeruginosa PAK,16 µM
same,FICI,P. aeruginosa PAK,0.094
same,MICac: MIC of the antibiotic in the combination,P. aeruginosa PAK,0.5
same,MIC,P. aeruginosa PA14,> 128 µM
same,FICI,P. aeruginosa PA14,0.094
same,MICac: MIC of the antibiotic in the combination,P. aeruginosa PA14,16
same,MIC,P. aeruginosa NR-31041,16 µM
same,FICI,P. aeruginosa NR-31041,0.078
same,MICac: MIC of the antibiotic in the combination,P. aeruginosa NR-31041,0.25
same,FICI,P. aeruginosa NR-31040; strain NR-31040,0.094
same,MICa: MIC of the antibiotic,"P. aeruginosa NR-31040; strain NR-31040, antibiotic alone, unit not given",16
same,MICac: MIC of the antibiotic in the combination,P. aeruginosa NR-31040; [5],1
same,MIC,P. aeruginosa ATCC27853,16 µM
same,FICI,P. aeruginosa ATCC27853,0.156
same,MICac: MIC of the antibiotic in the combination,P. aeruginosa ATCC27853,0.5
same,MIC,[1]; [6],32 µM
same,MIC,[1]; [7],8 µM
same,MIC,[1]; [8],8 µM
same,MIC,[1]; [9],8 µM
same,MIC,[1]; [10],32 µM
same,MIC,[1]; [11],16 µM
same,MIC,[1]; [12],8 µM
same,MIC,[1]; [13],16 µM
same,MIC,[1]; [14],16 µM
CO[C@@H]1[C@@H](OC(N)=O)[C@@H](O)[C@H](Oc2ccc3c(O)c(NC(=O)c4ccc(O)c(CC=C(C)C)c4)c(=O)oc3c2C)OC1(C)C [Novobiocin],MIC,P. aeruginosa AUMC-Pa-3,> 128 µM
same,FICI,P. aeruginosa AUMC-Pa-3,0.033
same,MICac: MIC of the antibiotic in the combination,P. aeruginosa AUMC-Pa-3,0.5
same,reduction of the MICs,P. aeruginosa PAO1; in the presence of 4 μM of D-11,512 fold
same,MIC,P. aeruginosa PAO1,> 128 µM
same,FICI,P. aeruginosa PAO1; antibiotic + 2 μM D-11,0.064
same,MICac: the MIC for the antibiotic in the combination,P. aeruginosa PAO1; with 2 μM D-11,0.5 µM
same,MICac: the MIC for the antibiotic in the combination,P. aeruginosa PAO1; with 4 μM D-11,0.5 µM
same,MIC,"P. aeruginosa AUMC-Pa-6; Pseudomonas aeruginosa, AUMCPA6, 18 h, read-out: MICa: MIC of the antibiotic",> 128 µM
same,FICI,P. aeruginosa AUMC-Pa-6; strain AUMC-Pa-6,0.563
same,MICac: MIC of the antibiotic in the combination,P. aeruginosa AUMC-Pa-6; [2],>128/128
same,MIC,"P. aeruginosa AUMC-Pa-4; Pseudomonas aeruginosa, AUMCPA4, 18 h, read-out: MICa: MIC of the antibiotic",> 128 µM
same,FICI,P. aeruginosa AUMC-Pa-4; strain AUMC-Pa-4,0.531
same,MICac: MIC of the antibiotic in the combination,P. aeruginosa AUMC-Pa-4; [3],>128/128
same,MIC,"P. aeruginosa AUMC-Pa-5; Pseudomonas aeruginosa, AUMCPA5, 18 h, read-out: MICa: MIC of the antibiotic",> 128 µM
same,FICI,P. aeruginosa AUMC-Pa-5; strain AUMC-Pa-5,0.563
same,MICac: MIC of the antibiotic in the combination,P. aeruginosa AUMC-Pa-5; [4],>128/128
same,FICI,P. aeruginosa HM-214,0.531
same,FICI,P. aeruginosa AUMC-Pa-1,0.035
same,FICI,P. aeruginosa AUMC-Pa-2,0.070
same,MIC,P. aeruginosa PAK,> 128 µM
same,FICI,P. aeruginosa PAK,0.070
same,MICac: MIC of the antibiotic in the combination,P. aeruginosa PAK,2
same,MIC,P. aeruginosa PA14,> 128 µM
same,FICI,P. aeruginosa PA14,0.063
same,MICac: MIC of the antibiotic in the combination,P. aeruginosa PA14,8
same,MIC,P. aeruginosa NR-31041,> 128 µM
same,FICI,P. aeruginosa NR-31041,0.078
same,MICac: MIC of the antibiotic in the combination,P. aeruginosa NR-31041,4
same,MIC,"P. aeruginosa NR-31040; Pseudomonas aeruginosa, NR31040, 18 h, read-out: MICa: MIC of the antibiotic",> 128 µM
same,FICI,P. aeruginosa NR-31040; strain NR-31040,0.281
same,MICac: MIC of the antibiotic in the combination,P. aeruginosa NR-31040; [5],64
same,MIC,P. aeruginosa ATCC27853,> 128 µM
same,FICI,P. aeruginosa ATCC27853,0.133
same,MICac: MIC of the antibiotic in the combination,P. aeruginosa ATCC27853,2
same,MIC,[1]; [6],> 128 µM
same,MIC,[1]; [7],> 128 µM
same,MIC,[1]; [8],> 128 µM
same,MIC,[1]; [9],> 128 µM
same,MIC,[1]; [10],> 128 µM
same,MIC,[1]; [11],> 128 µM
same,MIC,[1]; [12],> 128 µM
same,MIC,[1]; [13],> 128 µM
same,MIC,[1]; [14],> 128 µM
